Data taken from EPA's ToxValDB 9.5 (doi:10.2903/j.efsa.2008.127r).
In brackets after ≈: the same amount, converted by molar mass.

Experiments:
[1] = system: Daphnia magna; details: chronic/long-term; duration: 21 days; reproduction
[2] = system: Apis mellifera; details: acute, mortality
[3] = system: Rattus norvegicus
[4] = system: Folsomia candida; details: chronic/long-term; duration: 28 days
[5] = system: Anas platyrhynchos
[6] = system: Colinus virginianus
[7] = system: Bibionidae; details: chronic/long-term; duration: 27 days
[8] = system: Tagia sp.
[9] = system: Oncorhynchus mykiss

CCCCN(CC)c1c([N+](=O)[O-])cc(C(F)(F)F)cc1[N+](=O)[O-] [Benfluralin]
NOEC [1]: 0.0155 mg/L | LD50 ([2]; dermal): > 100 µg/piece | LD50 ([2]; oral, unspecified): > 111 µg/piece | LD50 ([3]; acute, oral, mortality): > 5000 mg/kg-day | NOAEL ([3]; chronic, duration: 2 years, histopathology: nonneoplastic): 0.5 mg/kg-day | NOAEL ([3]; reproduction developmental, body weight): 5.5 mg/kg-day | NOAEL ([3]; subchronic, duration: 90 days, oral, histopathology: nonneoplastic): 17 mg/kg-day | NOEC [4]: 5.5 mg/kg | NOEC ([5]; reproductive): 49.3 mg/kg-day | LC50 ([5]; short-term, oral, feed, mortality): > 793 mg/kg-day | LC50 ([6]; acute, oral, diet, mortality): > 909 mg/kg-day | LD50 ([6]; acute, oral, mortality): > 2000 mg/kg-day | NOEC ([6]; reproduction developmental): 8.6 mg/kg-day | NOEC [7]: 0.231 mg/L | LC50 ([8]; acute, duration: 14 days, mortality): > 1000 mg/kg | NOEC ([8]; chronic/long-term, duration: 8 weeks): 30.8 mg/kg | LC50 ([9]; acute, duration: 96 hours, mortality): 0.081 µg/mL (≈ 0.242 µM) | NOEC ([9]; chronic/long-term, duration: 49 days, growth): 0.0019 mg/L
